Laboratory results from patent US10143691B2, “Pathogenic control of apoptosis” (CSIR, priority 2014, dated 2018).
“Also recorded” adds a separate entry of the source.

Columns and labels:
Format in all cases: cell-based
[1] = tested on: hnRNP-K; assay: Immunofluorescence of hnRNP-K cellular location in Ghost(3) cells
Experimental: (§1) For each experiment, Ghost(3) cells or IPSC-derived primary macrophages were infected or treated with 500 nM Doxorubicin on coverslips, fixed for 10 mins in fresh 4% paraformaldehyde at room temperature, then washed 3 times in PBS and permeabilised for 10 mins in ice-cold methanol at […]. Coverslips were washed once in PBS and incubated in blocking buffer (5% goat serum, 0.3% TritonX100 in PBS) for 60 mins at room temperature. Cells were incubated in primary antibody solution (1% BSA, 0.3% Triton X100 in PBS) overnight at 4° C. Double strand breaks were detected using rabbit polyclonal anti-phosphohistone H2A.X Ser139 (Cell Signaling). Activated ATM was detected using rabbit monoclonal anti-phosphoATM Ser1981 (Cell Signaling). The ability of p53 to regulate apoptosis was detected using rabbit polyclonal antiphosphop53 Ser46 (Cell Signaling). Viral p24 was detected using mouse monoclonal anti-HIV1p24 (AIDS Research and Reference Reagent Program, Division of AIDS, NIAID, NIH). HuR was detected using mouse monoclonal anti-HuR 3A2 (Santa Cruz Biotechnology). hnRNPK was detected using goat polyclonal anti-hnRNPK P20 (Santa Cruz Biotechnology). Coverslips were washed 3 times (5 mins each on an orbital shaker) with wash buffer (0.05% Tween20 in PBS), followed by incubation with secondary antibodies conjugated to either Atto550 or Atto565 or Atto647 for 60 mins at room temperature. Coverslips were washed 3 times (5 mins each on an orbital shaker) with wash buffer (0.05% Tween20 in PBS). Coverslips were incubated in equilibration buffer (0.4% glucose, 2×SCC) for 5 mins and counter stained with 1 mg/ml DAPI (4′,6-diamidino-2-phenylindole; Life Technologies). Coverslips were mounted in glox buffer (3.7 mg/ml glucose oxidase, 1 U catalase) and imaged.
For each experiment, cells were infected or treated with drugs on coverslips, fixed for 10 mins in fresh 4% paraformaldehyde at room temperature, then washed 3 times in PBS and permeabilised for 10 mins in ice-cold methanol at −20° C. Coverslips were washed once in PBS and incubated in blocking buffer (5% goat serum, 0.3% Triton-X100 in PBS) for 60 mins at room temperature. Cells were incubated in primary antibody solution (1% BSA, 0.3% Triton X-100 in PBS) overnight at 4° C. Double strand breaks were detected using rabbit polyclonal anti-phospho-histone H2A.X Ser139 (Cell Signaling). Activated ATM was detected using rabbit monoclonal anti-phospho-ATM Ser1981 (Cell Signaling). The ability of p53 to regulate apoptosis was detected using rabbit polyclonal anti-phospho-p53 Ser46 (Cell Signaling). Viral p24 was detected using mouse monoclonal anti-HIV-1-p24 (AIDS Research and Reference Reagent Program, Division of AIDS, NIAID, NIH). HuR was detected using mouse monoclonal anti-HuR 3A2 (Santa Cruz Biotechnology). hnRNP-K was detected using goat polyclonal anti-hnRNP-K P-20 (Santa Cruz Biotechnology). Coverslips were washed 3 times (5 mins each on an orbital shaker) with wash buffer (0.05% Tween-20 in PBS), followed by incubation with secondary antibodies conjugated to either Atto-550 or Atto-565 or Atto-647 for 60 mins at room temperature. Coverslips were washed 3 times (5 mins each on an orbital shaker) with wash buffer (0.05% Tween-20 in PBS). Coverslips were incubated in equilibration buffer (0.4% glucose, 2×SCC) for 5 mins and counter stained with 1 mg/ml DAPI (4′,6-diamidino-2-phenylindole; Life Technologies). Coverslips were mounted in glox buffer (3.7 mg/ml glucose oxidase, 1 U catalase) and imaged.

[2] = tested on: p53pSer46; assay: Immunofluorescence staining of p53pSer46 apoptotic mark; details: Ghost(3) cells, Doxorubicin 500 nM, no HIV
Experimental: as §1, with “Coverslips were washed 3 times (5 mins each on an orbital shaker) with wash buffer (0.05% Tween20 in PBS). Coverslips were incubated in equilibration buffer (0.4% glucose, 2×SCC) for 5 mins and counter stained with 1 mg/ml DAPI (4′,6-diamidino-2-phenylindole; Life Technologies). Coverslips were mounted in glox buffer (3.7 mg/ml glucose oxidase, 1 U catalase) and imaged.” left out

[3] = tested on: H2A.XpSer139; assay: Immunofluorescence staining of double strand breaks (H2A.XpSer139)
Experimental: as §1
For each experiment, cells were infected or treated with drugs on coverslips, fixed for 10 mins in fresh 4% paraformaldehyde at room temperature, then washed 3 times in PBS and permeabilised for 10 mins in ice-cold methanol at −20° C. Coverslips were washed once in PBS and incubated in blocking buffer (5% goat serum, 0.3% Triton-X100 in PBS) for 60 mins at room temperature. […] Double strand breaks were detected using rabbit polyclonal anti-phospho-histone H2A.X Ser139 (Cell Signaling). Activated ATM was detected using rabbit monoclonal anti-phospho-ATM Ser1981 (Cell Signaling). The ability of p53 to regulate apoptosis was detected using rabbit polyclonal anti-phospho-p53 Ser46 (Cell Signaling). Viral p24 was detected using mouse monoclonal anti-HIV-1-p24 (AIDS Research and Reference Reagent Program, Division of AIDS, NIAID, NIH). HuR was detected using mouse monoclonal anti-HuR 3A2 (Santa Cruz Biotechnology). hnRNP-K was detected using goat polyclonal anti-hnRNP-K P-20 (Santa Cruz Biotechnology). […]

COc1cccc2c1C(=O)c1c(O)c3c(c(O)c1C2=O)C[C@@](O)(C(=O)CO)C[C@@H]3O[C@H]1C[C@H](N)[C@H](O)[C@H](C)O1 [Doxorubicin]
cellular location of hnRNP-K ([1]; Ghost(3) cells, drug only, no HIV infection): nuclear hnRNP-K within 2 hours; also recorded: detected in the nucleus of Doxorubicin-treated cells between 2 and 4 hours post-treatment; also recorded: nuclear hnRNPK within 2 hours | cellular location of hnRNP-K ([1]; cells concurrently infected and treated with Maraviroc, Tenofovir or Raltegravir, Doxorubicin added afterwards): hnRNPK localized to the nucleus; also recorded: nuclear hnRNPK within 3 hours of chemical-induced DNA damage | phosphorylation of p53 at Ser46 [2]: phosphorylation of both ATMpSer1981 and p53pSer46 in the nucleus within 8 hours; also recorded: Activated p53 dimers are detected | DSBs (H2A.XpSer139 staining) ([3]; Ghost(3) cells infected with HIV-1 24 hours prior to Doxorubicin treatment): numerous DSBs | DSBs (H2A.XpSer139 staining) ([3]; Ghost(3) cells infected with HIV-1 after exposure to Doxorubicin): extensive H2A.XpSer139 staining | H2A.X (pSer139) staining of DSBs ([3]; uninfected Ghost(3) cells, lethal dose of Doxorubicin (500 nM)): extensive H2A.X staining within 8 hours of treatment; also recorded: extensive H2A.XpSer139 staining
